Measurements as given in ChEMBL document CHEMBL1201862, “PubChem BioAssay data set” (2004).
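Interpolation was linear, between the two tested concentrations surrounding the appropriate level; five concentrations were tested over 48 hours in 96-well plates. GI50 marks 50% less growth.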 Calls of active or inactive are those of the source. Cut-off read from the data, not from the text of the source: active = GI50 up to about 1.1 µM and inactive = higher.

What was measured:
Assay in all cases: NCI-60 cell line screen, 48 h
DLD-1 = test system: DLD-1
COLO 205 = test system: COLO 205
K562 = test system: K562
IGROV-1 = test system: IGROV-1
A498 = test system: A498
XF498 = test system: XF498
U-251 = test system: U-251
SW-620 = test system: SW-620
SK-MEL-2 = test system: SK-MEL-2
DMS-273 = test system: DMS-273
CCRF-CEM = test system: CCRF-CEM
A549 = test system: A549
HOP-92 = test system: HOP-92
TK-10 = test system: TK-10
SNB-75 = test system: SNB-75
Malme-3M = test system: Malme-3M
MOLT-4 = test system: MOLT-4
SNB-19 = test system: SNB-19
SK-MEL-28 = test system: SK-MEL-28
NCI-H460 = test system: NCI-H460
SK-OV-3 = test system: SK-OV-3
KM12 = test system: KM12
HOP-62 = test system: HOP-62
HT-29 = test system: HT-29
OVCAR-3 = test system: OVCAR-3
CAKI-1 = test system: CAKI-1
NCI-H522 = test system: NCI-H522
SK-MEL-5 = test system: SK-MEL-5
OVCAR-8 = test system: OVCAR-8
UO-31 = test system: UO-31
786-0 = test system: 786-0
UACC-62 = test system: UACC-62
HCT-15 = test system: HCT-15
KM-20L2 = test system: KM-20L2
SF-539 = test system: SF-539
DMS-114 = test system: DMS-114
OVCAR-5 = test system: OVCAR-5
ACHN = test system: ACHN
M19-MEL = test system: M19-MEL
SN12C = test system: SN12C
M14 = test system: M14
NCI-H226 = test system: NCI-H226
HCT-116 = test system: HCT-116
LXFL 529 = test system: LXFL 529
SR = test system: SR
SNB-78 = test system: SNB-78
NCI-H23 = test system: NCI-H23
RPMI-8226 = test system: RPMI-8226
SF-268 = test system: SF-268
EKVX = test system: EKVX
UACC-257 = test system: UACC-257
SF-295 = test system: SF-295
RXF 393 = test system: RXF 393
OVCAR-4 = test system: OVCAR-4
HL-60 = test system: HL-60
HOP-18 = test system: HOP-18
HCC 2998 = test system: HCC 2998
LOX IMVI = test system: LOX IMVI

## CCOC(=O)Cn1c(=O)n(C)c(=O)c2c1ncn2Cc1ccccc1
DLD-1
  GI50: > 100 µM (inactive)
COLO 205
  GI50: > 100 µM (inactive)
K562
  GI50: > 100 µM (inactive)
IGROV-1
  GI50: > 100 µM (inactive)
A498
  GI50: > 100 µM (inactive)
XF498
  GI50: 98.2 µM (inactive)
U-251
  GI50: > 100 µM (inactive)
SW-620
  GI50: > 100 µM (inactive)
SK-MEL-2
  GI50: > 100 µM (inactive)
DMS-273
  GI50: > 100 µM (inactive)
CCRF-CEM
  GI50: > 100 µM (inactive)
A549
  GI50: > 100 µM (inactive)
HOP-92
  GI50: > 100 µM (inactive)
TK-10
  GI50: > 100 µM (inactive)
SNB-75
  GI50: > 100 µM (inactive)
Malme-3M
  GI50: > 100 µM (inactive)
MOLT-4
  GI50: > 100 µM (inactive)
SNB-19
  GI50: > 100 µM (inactive)
SK-MEL-28
  GI50: > 100 µM (inactive)
NCI-H460
  GI50: > 100 µM (inactive)
SK-OV-3
  GI50: > 100 µM (inactive)
KM12
  GI50: > 100 µM (inactive)
HOP-62
  GI50: > 100 µM (inactive)
HT-29
  GI50: > 100 µM (inactive)
OVCAR-3
  GI50: > 100 µM (inactive)
CAKI-1
  GI50: > 100 µM (inactive)
NCI-H522
  GI50: > 100 µM (inactive)
SK-MEL-5
  GI50: > 100 µM (inactive)
OVCAR-8
  GI50: > 100 µM (inactive)
UO-31
  GI50: > 100 µM (inactive)
786-0
  GI50: > 100 µM (inactive)
UACC-62
  GI50: > 100 µM (inactive)
HCT-15
  GI50: > 100 µM
KM-20L2
  GI50: > 100 µM (inactive)
SF-539
  GI50: > 100 µM (inactive)
DMS-114
  GI50: > 100 µM (inactive)
OVCAR-5
  GI50: > 100 µM (inactive)
ACHN
  GI50: > 100 µM (inactive)
M19-MEL
  GI50: > 100 µM (inactive)
SN12C
  GI50: > 100 µM (inactive)
M14
  GI50: > 100 µM (inactive)
NCI-H226
  GI50: > 100 µM (inactive)
HCT-116
  GI50: > 100 µM (inactive)
LXFL 529
  GI50: > 100 µM (inactive)
SR
  GI50: > 100 µM (inactive)
SNB-78
  GI50: > 100 µM (inactive)
NCI-H23
  GI50: > 100 µM (inactive)
RPMI-8226
  GI50: > 100 µM (inactive)
SF-268
  GI50: > 100 µM (inactive)
EKVX
  GI50: > 100 µM (inactive)

## COC(=O)c1cc(OC(C)=O)c2c(OC)ccc(OC)c2c1
DLD-1
  GI50: > 100 µM (inactive)
COLO 205
  GI50: > 100 µM (inactive)
K562
  GI50: > 100 µM (inactive)
IGROV-1
  GI50: > 100 µM (inactive)
XF498
  GI50: > 100 µM (inactive)
U-251
  GI50: > 100 µM (inactive)
SW-620
  GI50: > 100 µM (inactive)
SK-MEL-2
  GI50: > 100 µM (inactive)
DMS-273
  GI50: > 100 µM (inactive)
A549
  GI50: > 100 µM (inactive)
HOP-92
  GI50: > 100 µM (inactive)
TK-10
  GI50: > 100 µM (inactive)
SNB-75
  GI50: 39.5 µM (inactive)
Malme-3M
  GI50: > 100 µM (inactive)
MOLT-4
  GI50: 60.8 µM (inactive)
SK-MEL-28
  GI50: > 100 µM (inactive)
NCI-H460
  GI50: > 100 µM (inactive)
SK-OV-3
  GI50: > 100 µM (inactive)
KM12
  GI50: > 100 µM (inactive)
UACC-257
  GI50: > 100 µM (inactive)
HT-29
  GI50: 47.9 µM (inactive)
OVCAR-3
  GI50: > 100 µM (inactive)
CAKI-1
  GI50: > 100 µM (inactive)
SK-MEL-5
  GI50: > 100 µM (inactive)
OVCAR-8
  GI50: > 100 µM (inactive)
786-0
  GI50: > 100 µM (inactive)
UACC-62
  GI50: > 100 µM (inactive)
HCT-15
  GI50: 64.6 µM
KM-20L2
  GI50: > 100 µM (inactive)
SF-539
  GI50: > 100 µM (inactive)
SF-295
  GI50: > 100 µM (inactive)
DMS-114
  GI50: > 100 µM (inactive)
OVCAR-5
  GI50: > 100 µM (inactive)
ACHN
  GI50: > 100 µM (inactive)
M19-MEL
  GI50: > 100 µM (inactive)
SN12C
  GI50: > 100 µM (inactive)
M14
  GI50: > 100 µM (inactive)
NCI-H226
  GI50: > 100 µM (inactive)
HCT-116
  GI50: > 100 µM (inactive)
LXFL 529
  GI50: > 100 µM (inactive)
SR
  GI50: 86.1 µM (inactive)
SNB-78
  GI50: > 100 µM (inactive)
NCI-H23
  GI50: > 100 µM (inactive)
RXF 393
  GI50: > 100 µM (inactive)
RPMI-8226
  GI50: > 100 µM (inactive)
OVCAR-4
  GI50: > 100 µM (inactive)
EKVX
  GI50: > 100 µM (inactive)

## CCOc1ccc(NC(=O)C(=O)NO)cc1
DLD-1
  GI50: > 100 µM (inactive)
COLO 205
  GI50: > 100 µM (inactive)
K562
  GI50: > 100 µM (inactive)
IGROV-1
  GI50: > 100 µM (inactive)
A498
  GI50: > 100 µM (inactive)
U-251
  GI50: > 100 µM (inactive)
SW-620
  GI50: > 100 µM (inactive)
SK-MEL-2
  GI50: > 100 µM (inactive)
DMS-273
  GI50: > 100 µM (inactive)
CCRF-CEM
  GI50: > 100 µM (inactive)
A549
  GI50: > 100 µM (inactive)
HOP-92
  GI50: > 100 µM (inactive)
TK-10
  GI50: > 100 µM (inactive)
SNB-75
  GI50: > 100 µM (inactive)
Malme-3M
  GI50: > 100 µM (inactive)
MOLT-4
  GI50: > 100 µM (inactive)
SNB-19
  GI50: > 100 µM (inactive)
SK-MEL-28
  GI50: > 100 µM (inactive)
HL-60
  GI50: > 100 µM (inactive)
NCI-H460
  GI50: > 100 µM (inactive)
SK-OV-3
  GI50: > 100 µM (inactive)
KM12
  GI50: > 100 µM (inactive)
HOP-18
  GI50: > 100 µM (inactive)
HOP-62
  GI50: > 100 µM (inactive)
UACC-257
  GI50: > 100 µM (inactive)
HT-29
  GI50: > 100 µM (inactive)
OVCAR-3
  GI50: > 100 µM (inactive)
CAKI-1
  GI50: > 100 µM (inactive)
NCI-H522
  GI50: > 100 µM (inactive)
SK-MEL-5
  GI50: > 100 µM (inactive)
OVCAR-8
  GI50: > 100 µM (inactive)
UO-31
  GI50: > 100 µM (inactive)
786-0
  GI50: > 100 µM (inactive)
UACC-62
  GI50: > 100 µM (inactive)
HCT-15
  GI50: > 100 µM
KM-20L2
  GI50: > 100 µM (inactive)
SF-539
  GI50: > 100 µM (inactive)
HCC 2998
  GI50: > 100 µM (inactive)
SF-295
  GI50: > 100 µM (inactive)
DMS-114
  GI50: > 100 µM (inactive)
OVCAR-5
  GI50: > 100 µM (inactive)
ACHN
  GI50: > 100 µM (inactive)
M19-MEL
  GI50: > 100 µM (inactive)
SN12C
  GI50: > 100 µM (inactive)
M14
  GI50: > 100 µM (inactive)
NCI-H226
  GI50: > 100 µM (inactive)
HCT-116
  GI50: > 100 µM (inactive)
LXFL 529
  GI50: > 100 µM (inactive)
SR
  GI50: 55.3 µM (inactive)
SNB-78
  GI50: > 100 µM (inactive)
NCI-H23
  GI50: > 100 µM (inactive)
RXF 393
  GI50: > 100 µM (inactive)
RPMI-8226
  GI50: > 100 µM (inactive)
SF-268
  GI50: > 100 µM (inactive)
OVCAR-4
  GI50: > 100 µM (inactive)
EKVX
  GI50: > 100 µM (inactive)
LOX IMVI
  GI50: > 100 µM (inactive)
